{"source": "ChEMBL document CHEMBL5465560", "about": "“Selectivity Literature for EUbOPEN Chemogenomic Library” (2024)", "key": {"[1]": {"target": "Tyrosine-protein kinase HCK (Homo sapiens) (UniProt P08631)", "conditions": "at 10 µM"}, "[2]": {"target": "T1, Tyrosine-protein kinase ABL2 (Homo sapiens, UniProt P42684)", "T1 sequence (P42684 whole entry)": "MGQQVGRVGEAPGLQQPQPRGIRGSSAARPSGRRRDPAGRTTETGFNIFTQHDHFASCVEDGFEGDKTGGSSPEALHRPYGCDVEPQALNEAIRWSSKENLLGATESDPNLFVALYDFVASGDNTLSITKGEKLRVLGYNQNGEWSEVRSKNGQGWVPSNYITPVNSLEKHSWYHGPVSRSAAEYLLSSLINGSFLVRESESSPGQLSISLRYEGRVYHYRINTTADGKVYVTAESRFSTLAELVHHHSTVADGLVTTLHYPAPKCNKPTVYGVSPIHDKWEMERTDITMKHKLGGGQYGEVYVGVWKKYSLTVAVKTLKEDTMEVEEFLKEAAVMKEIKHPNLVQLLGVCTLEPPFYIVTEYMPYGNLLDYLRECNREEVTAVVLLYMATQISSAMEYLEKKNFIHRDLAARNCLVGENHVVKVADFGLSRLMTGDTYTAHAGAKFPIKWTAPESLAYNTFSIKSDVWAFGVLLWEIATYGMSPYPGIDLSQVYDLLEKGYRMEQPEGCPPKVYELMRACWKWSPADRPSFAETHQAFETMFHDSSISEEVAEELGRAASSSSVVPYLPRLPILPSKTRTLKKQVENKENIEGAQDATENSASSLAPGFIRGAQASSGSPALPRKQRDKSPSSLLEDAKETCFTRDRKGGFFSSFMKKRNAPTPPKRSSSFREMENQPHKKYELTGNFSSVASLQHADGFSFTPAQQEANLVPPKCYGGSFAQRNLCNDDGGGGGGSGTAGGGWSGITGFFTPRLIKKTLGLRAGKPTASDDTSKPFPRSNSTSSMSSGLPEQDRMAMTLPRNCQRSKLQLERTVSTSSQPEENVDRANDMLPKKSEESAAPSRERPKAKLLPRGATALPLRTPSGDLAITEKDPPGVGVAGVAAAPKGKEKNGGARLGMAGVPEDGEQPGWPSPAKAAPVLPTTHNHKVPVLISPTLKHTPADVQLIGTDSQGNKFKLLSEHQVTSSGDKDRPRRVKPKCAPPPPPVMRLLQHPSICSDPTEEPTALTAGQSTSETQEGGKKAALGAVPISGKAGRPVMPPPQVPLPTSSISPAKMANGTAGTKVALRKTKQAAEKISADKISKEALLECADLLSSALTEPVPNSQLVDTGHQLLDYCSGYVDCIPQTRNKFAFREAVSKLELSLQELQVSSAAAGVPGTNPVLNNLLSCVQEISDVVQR", "test": "Selectivity interaction (Millipore kinase profiler) EUB0000124b ABL2", "conditions": "at 10 µM"}, "[3]": {"target": "Mitogen-activated protein kinase kinase kinase kinase 4 (Homo sapiens, UniProt O95819)", "test": "Selectivity interaction (Kinase screening (Nanosyn)) EUB0000604a MAP4K4"}, "[4]": {"target": "Mitogen-activated protein kinase 11 (Homo sapiens) (UniProt Q15759)", "sequence (Q15759 whole entry)": "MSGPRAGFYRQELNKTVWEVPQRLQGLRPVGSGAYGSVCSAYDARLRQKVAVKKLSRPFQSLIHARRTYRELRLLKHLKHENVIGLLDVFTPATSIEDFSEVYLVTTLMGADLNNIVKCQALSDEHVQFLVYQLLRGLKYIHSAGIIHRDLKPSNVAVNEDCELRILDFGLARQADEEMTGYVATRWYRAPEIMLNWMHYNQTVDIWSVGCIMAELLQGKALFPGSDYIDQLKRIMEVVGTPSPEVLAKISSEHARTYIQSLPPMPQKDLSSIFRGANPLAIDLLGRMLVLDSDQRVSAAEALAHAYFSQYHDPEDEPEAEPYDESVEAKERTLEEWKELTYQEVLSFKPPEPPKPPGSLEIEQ", "test": "Selectivity interaction (KinomeScan (DiscoverX)) EUB0001049a MAPK11", "conditions": "at 1 µM"}, "[5]": {"target": "Mitogen-activated protein kinase kinase kinase 20 (Homo sapiens) (UniProt Q9NYL2)", "sequence (Q9NYL2 2-800 limits assumed)": "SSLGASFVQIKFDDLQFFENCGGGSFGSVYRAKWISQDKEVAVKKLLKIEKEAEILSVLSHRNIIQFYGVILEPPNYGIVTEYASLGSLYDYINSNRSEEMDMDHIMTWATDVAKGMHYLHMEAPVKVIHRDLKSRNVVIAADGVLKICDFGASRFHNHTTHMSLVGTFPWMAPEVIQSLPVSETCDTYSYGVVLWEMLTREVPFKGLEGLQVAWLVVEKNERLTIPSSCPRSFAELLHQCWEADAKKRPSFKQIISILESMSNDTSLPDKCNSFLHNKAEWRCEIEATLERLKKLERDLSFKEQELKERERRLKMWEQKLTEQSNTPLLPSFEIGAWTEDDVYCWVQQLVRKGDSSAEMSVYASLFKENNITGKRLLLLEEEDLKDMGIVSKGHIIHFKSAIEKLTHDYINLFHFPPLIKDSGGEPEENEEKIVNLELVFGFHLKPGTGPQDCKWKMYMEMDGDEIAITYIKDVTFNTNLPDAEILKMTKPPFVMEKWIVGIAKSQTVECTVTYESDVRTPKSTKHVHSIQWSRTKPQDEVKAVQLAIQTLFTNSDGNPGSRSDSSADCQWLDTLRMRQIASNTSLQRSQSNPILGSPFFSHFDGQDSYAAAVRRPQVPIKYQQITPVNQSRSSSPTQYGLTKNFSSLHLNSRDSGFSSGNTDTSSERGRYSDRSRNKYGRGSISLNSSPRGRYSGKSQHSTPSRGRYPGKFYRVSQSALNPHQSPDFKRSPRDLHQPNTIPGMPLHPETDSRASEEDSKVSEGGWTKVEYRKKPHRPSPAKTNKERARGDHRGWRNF", "test": "Selectivity interaction (KinomeScan (DiscoverX)) EUB0001049a MAP3K20", "conditions": "at 1 µM"}, "[6]": {"target": "5'-AMP-activated protein kinase catalytic subunit alpha-1 (Homo sapiens, UniProt Q13131)", "sequence (Q13131 whole entry, looked up)": "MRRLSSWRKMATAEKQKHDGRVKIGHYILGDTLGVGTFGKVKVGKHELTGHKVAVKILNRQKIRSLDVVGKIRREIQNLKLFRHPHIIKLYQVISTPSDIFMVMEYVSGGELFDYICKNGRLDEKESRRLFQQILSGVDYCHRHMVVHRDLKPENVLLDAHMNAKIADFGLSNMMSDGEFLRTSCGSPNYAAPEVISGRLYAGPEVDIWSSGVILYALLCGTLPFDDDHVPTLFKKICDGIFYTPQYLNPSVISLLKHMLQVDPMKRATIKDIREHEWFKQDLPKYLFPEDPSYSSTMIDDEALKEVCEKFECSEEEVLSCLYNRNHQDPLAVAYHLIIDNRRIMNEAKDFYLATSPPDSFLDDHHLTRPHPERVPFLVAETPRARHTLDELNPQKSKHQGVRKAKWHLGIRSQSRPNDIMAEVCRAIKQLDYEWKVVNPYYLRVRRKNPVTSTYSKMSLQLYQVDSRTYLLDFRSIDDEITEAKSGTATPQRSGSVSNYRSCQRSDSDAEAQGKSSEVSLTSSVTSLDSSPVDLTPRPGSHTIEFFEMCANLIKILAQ", "test": "Selectivity interaction (ActivX KiNativ screen (kinase selectivity in THP-1 cell lysates)) EUB0000639a PRKAA1", "assay_type": "subcellular", "conditions": "lysate, at 1 µM"}, "[7]": {"target": "Tyrosine-protein kinase Lck (Homo sapiens, UniProt P06239)", "test": "Selectivity interaction (Kinase panel (literature)) EUB0001199aCl LCK", "conditions": "at 1 µM"}, "[8]": {"target": "T2, Protein kinase C zeta type (Homo sapiens) (UniProt Q05513)", "T2 sequence (whole entry)": "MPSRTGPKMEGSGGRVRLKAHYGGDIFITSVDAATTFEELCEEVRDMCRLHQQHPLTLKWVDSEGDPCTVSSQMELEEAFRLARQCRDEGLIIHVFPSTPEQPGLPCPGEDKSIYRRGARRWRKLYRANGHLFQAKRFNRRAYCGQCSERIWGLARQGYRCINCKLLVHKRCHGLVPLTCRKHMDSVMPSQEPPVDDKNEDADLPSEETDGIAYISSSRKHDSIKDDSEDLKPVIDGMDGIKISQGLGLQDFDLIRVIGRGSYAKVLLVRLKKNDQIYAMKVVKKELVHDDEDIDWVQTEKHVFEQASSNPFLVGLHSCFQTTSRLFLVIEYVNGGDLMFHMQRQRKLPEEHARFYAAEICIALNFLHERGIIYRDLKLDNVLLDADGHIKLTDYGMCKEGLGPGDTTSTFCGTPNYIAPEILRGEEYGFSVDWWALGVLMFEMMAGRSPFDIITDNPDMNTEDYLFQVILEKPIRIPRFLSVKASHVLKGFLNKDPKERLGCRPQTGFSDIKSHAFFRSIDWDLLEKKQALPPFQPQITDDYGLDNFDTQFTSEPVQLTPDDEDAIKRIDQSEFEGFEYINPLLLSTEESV", "test": "Selectivity interaction (Kinase panel (Z-LYTE Assay)) EUB0001632a PRKCZ", "conditions": "at 10 µM"}, "[9]": {"target": "T3, Serine/threonine-protein kinase TAO3 (Homo sapiens) (UniProt Q9H2K8)", "T3 sequence (whole entry)": "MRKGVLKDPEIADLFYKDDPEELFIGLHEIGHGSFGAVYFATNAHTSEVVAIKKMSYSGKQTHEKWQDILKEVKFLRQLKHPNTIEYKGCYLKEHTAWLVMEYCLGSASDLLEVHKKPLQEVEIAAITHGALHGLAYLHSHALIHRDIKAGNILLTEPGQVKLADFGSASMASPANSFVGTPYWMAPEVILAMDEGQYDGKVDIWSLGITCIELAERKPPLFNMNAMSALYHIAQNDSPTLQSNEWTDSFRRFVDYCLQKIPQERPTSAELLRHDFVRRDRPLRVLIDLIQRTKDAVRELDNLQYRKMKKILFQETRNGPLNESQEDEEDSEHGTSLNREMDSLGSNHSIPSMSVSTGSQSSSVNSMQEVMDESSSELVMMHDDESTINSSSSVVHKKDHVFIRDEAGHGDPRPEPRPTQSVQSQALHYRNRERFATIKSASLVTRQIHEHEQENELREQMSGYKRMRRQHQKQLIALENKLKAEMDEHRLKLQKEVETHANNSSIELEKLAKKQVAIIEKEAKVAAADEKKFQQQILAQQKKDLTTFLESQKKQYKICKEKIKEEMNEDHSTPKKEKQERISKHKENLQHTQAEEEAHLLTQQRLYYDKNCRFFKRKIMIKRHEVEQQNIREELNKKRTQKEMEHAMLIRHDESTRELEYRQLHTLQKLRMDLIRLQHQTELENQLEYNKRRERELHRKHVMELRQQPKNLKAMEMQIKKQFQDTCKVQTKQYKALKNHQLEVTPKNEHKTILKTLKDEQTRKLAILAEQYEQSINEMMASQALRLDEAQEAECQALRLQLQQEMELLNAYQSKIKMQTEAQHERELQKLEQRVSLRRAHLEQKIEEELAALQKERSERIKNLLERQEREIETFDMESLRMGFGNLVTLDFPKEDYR", "test": "Selectivity interaction (KinomeScan (DiscoverX)) EUB0000695a TAOK3", "conditions": "at 100 nM"}, "[10]": {"target": "Calcium/calmodulin-dependent protein kinase type II subunit gamma (Homo sapiens) (UniProt Q13555)", "sequence (Q13555 whole entry)": "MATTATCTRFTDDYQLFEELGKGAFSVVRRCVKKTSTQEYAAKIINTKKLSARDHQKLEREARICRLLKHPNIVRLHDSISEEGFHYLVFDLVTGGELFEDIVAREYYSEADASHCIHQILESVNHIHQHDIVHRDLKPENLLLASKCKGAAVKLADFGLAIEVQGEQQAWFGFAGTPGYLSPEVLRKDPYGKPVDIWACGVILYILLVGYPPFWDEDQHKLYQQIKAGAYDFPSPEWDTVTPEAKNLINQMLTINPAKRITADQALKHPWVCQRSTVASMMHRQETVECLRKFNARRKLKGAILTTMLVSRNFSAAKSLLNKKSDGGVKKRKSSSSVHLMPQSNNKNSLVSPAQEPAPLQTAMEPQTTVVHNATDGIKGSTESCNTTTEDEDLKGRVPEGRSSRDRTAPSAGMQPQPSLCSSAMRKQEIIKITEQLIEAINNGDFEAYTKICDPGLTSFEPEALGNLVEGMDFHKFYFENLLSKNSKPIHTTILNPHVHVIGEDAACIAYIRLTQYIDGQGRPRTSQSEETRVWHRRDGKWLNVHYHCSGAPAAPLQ", "test": "Selectivity interaction (KinomeScan (DiscoverX)) EUB0000595a CAMK2G", "conditions": "at 10 µM"}, "[11]": {"target": "Fibroblast growth factor receptor 1 (Homo sapiens, UniProt P11362)", "test": "Selectivity interaction (KinomeScan (DiscoverX)) EUB0001079a FGFR1", "conditions": "at 1 µM"}, "[12]": {"target": "Insulin-like growth factor 1 receptor (Homo sapiens, UniProt P08069)", "sequence (P08069 31-736 limits assumed)": "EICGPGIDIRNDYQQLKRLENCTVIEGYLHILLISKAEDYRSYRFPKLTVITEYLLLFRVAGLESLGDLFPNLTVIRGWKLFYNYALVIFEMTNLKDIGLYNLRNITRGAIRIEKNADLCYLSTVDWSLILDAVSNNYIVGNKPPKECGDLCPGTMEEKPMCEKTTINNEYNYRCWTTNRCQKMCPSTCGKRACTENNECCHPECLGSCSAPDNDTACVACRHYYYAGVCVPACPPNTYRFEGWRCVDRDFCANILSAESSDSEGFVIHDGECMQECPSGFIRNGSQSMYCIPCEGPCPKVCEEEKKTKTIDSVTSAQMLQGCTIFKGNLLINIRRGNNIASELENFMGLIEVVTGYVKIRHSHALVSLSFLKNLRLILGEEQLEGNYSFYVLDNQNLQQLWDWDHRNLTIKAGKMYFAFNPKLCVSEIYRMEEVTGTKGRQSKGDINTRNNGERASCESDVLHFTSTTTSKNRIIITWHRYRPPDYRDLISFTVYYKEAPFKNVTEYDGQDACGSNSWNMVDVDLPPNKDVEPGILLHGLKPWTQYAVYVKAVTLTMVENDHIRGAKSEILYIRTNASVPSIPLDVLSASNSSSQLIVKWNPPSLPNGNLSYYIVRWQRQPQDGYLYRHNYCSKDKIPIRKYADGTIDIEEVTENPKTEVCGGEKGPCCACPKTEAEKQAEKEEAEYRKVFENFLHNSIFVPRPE", "sequence (P08069 741-1367 limits assumed)": "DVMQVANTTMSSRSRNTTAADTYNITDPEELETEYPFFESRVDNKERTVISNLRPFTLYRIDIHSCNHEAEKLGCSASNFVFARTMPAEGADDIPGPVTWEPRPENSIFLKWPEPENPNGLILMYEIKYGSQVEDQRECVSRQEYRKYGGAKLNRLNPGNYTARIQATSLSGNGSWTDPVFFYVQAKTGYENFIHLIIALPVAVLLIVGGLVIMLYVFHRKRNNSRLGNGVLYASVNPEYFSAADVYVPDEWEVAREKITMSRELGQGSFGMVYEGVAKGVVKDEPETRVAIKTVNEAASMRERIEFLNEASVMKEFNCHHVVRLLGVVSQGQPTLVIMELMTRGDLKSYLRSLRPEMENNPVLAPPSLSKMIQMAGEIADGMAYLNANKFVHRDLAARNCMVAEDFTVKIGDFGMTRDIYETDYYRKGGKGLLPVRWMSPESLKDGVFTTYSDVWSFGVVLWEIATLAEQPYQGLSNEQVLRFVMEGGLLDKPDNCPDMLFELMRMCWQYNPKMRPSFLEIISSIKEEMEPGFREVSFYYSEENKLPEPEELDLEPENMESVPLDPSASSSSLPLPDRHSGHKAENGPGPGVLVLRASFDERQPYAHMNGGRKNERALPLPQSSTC", "test": "Selectivity interaction (KinomeScan (DiscoverX)) EUB0000045b IGF1R"}, "[13]": {"target": "Serine/threonine-protein kinase PAK 1 (Homo sapiens) (UniProt Q13153)", "test": "Selectivity interaction (KinomeScan (DiscoverX)) EUB0001619a PAK1", "conditions": "at 1 µM"}, "[14]": {"target": "Cyclin-dependent kinase 11B (Homo sapiens) (UniProt P21127)", "test": "Selectivity interaction (KinomeScan (DiscoverX)) EUB0001619a CDK11B", "conditions": "at 1 µM"}, "[15]": {"target": "LIM domain kinase 2 (Homo sapiens) (UniProt P53671)", "test": "Selectivity interaction (KinomeScan (DiscoverX)) EUB0000618a LIMK2", "conditions": "at 10 µM"}, "[16]": {"target": "Vascular endothelial growth factor receptor 3 (Homo sapiens, UniProt P35916)", "test": "Selectivity interaction (KinomeScan (DiscoverX)) EUB0000618a FLT4", "conditions": "at 10 µM"}, "[17]": {"target": "T1, Tyrosine-protein kinase ABL2", "test": "Selectivity interaction (SelectScreen profiling (Invitrogen)) EUB0000607a ABL2", "conditions": "at 2 µM"}, "[18]": {"target": "Serine/threonine-protein kinase PRP4 homolog (Homo sapiens) (UniProt Q13523)", "test": "Selectivity interaction (Kinase panel (KiNativ target engagement assay in Jurkat cells)) EUB0001635a PRPF4", "assay_type": "cell-based", "conditions": "Selectivity number of off-targets 0.0, Selectivity number of targets 233.0, Source Knowledge https://www.sciencedirect.com/science/article/pii/S2451945619300674?via%3Dihub, at 1 µM"}, "[19]": {"target": "Maternal embryonic leucine zipper kinase (Homo sapiens) (UniProt Q14680)", "test": "Selectivity interaction (Kinase panel (DSF assay)) EUB0001558a MELK"}}}
{"smiles": "Cc1cc([C@@H](C)Nc2ccccc2C(=O)O)c2nc(N3CCOCC3)cc(=O)n2c1", "note": "[AZD-6482]", "values": [{"measurement": "% of control", "setting": "[1]", "result": 100, "unit": "%"}]}
{"smiles": "CC(=O)Nc1cccc(-n2c(=O)n(C3CC3)c(=O)c3c(Nc4ccc(I)cc4F)n(C)c(=O)c(C)c32)c1", "values": [{"measurement": "% of control", "setting": "[2]", "result": 111, "unit": "%"}]}
{"smiles": "Cc1cnc(Nc2ccc(F)cc2Cl)nc1-c1c[nH]c(C(=O)N[C@H](CO)c2cccc(Cl)c2)c1", "values": [{"measurement": "% of inhibition", "setting": "[3]", "result": 18, "unit": "%"}]}
{"smiles": "COc1cc(Nc2nc(C)cc(-c3cnn4nc(OC)ccc34)n2)cc(C(F)(F)F)c1", "values": [{"measurement": "% of control", "setting": "[4]", "result": 100, "unit": "%"}, {"measurement": "% of control", "setting": "[5]", "result": 77, "unit": "%"}]}
{"smiles": "CC[C@@H]1[C@H](F)C(=O)N[C@@H]1COc1nccc2cc(C(N)=O)c(OC)cc12", "note": "[ZIMLOVISERTIB]", "values": [{"measurement": "% of inhibition", "setting": "[6]", "result": 5.9, "unit": "%"}]}
{"smiles": "CN1Cc2nccc(-c3cn(C)nc3-c3ccc(F)cc3)c2C1=O", "values": [{"measurement": "% of inhibition", "setting": "[7]", "result": 7, "unit": "%"}]}
{"smiles": "Cn1cc(-n2cnc3c(NCc4nc5cc(Cl)c(Cl)cc5[nH]4)nc(N4CCOCC4)nc32)cn1", "values": [{"measurement": "% of control", "setting": "[8]", "result": 6.71, "unit": "%"}]}
{"smiles": "Cc1cc(F)c(C(=O)Nc2cccc(-c3nncn3C(C)C)n2)cc1-n1cnc(C2CC2)c1", "values": [{"measurement": "% of control", "setting": "[9]", "result": 100, "unit": "%"}]}
{"smiles": "COCC(=O)NC/C=C/c1ccc2ncnc(Nc3ccc(Oc4ccc(C)nc4)c(C)c3)c2c1", "note": "[CP-724714]", "values": [{"measurement": "% of control", "setting": "[10]", "result": 94, "unit": "%"}]}
{"smiles": "Nc1cnc(N2CCc3cc(S(=O)(=O)Nc4c(F)cc(Cl)cc4F)cc(N4CCCC4=O)c32)nc1", "note": "[TP-020n]", "values": [{"measurement": "% of control", "setting": "[11]", "result": 88, "unit": "%"}]}
{"smiles": "C=CC(=O)Nc1cc(-n2c(=O)ccc3cnc4ccc(-c5ccc(NS(C)(=O)=O)cc5)cc4c32)ccc1C", "values": [{"measurement": "% of control", "setting": "[12]; at 1 µM", "result": 100, "unit": "%"}, {"measurement": "% of control", "setting": "[12]; at 10 µM", "result": 80, "unit": "%"}]}
{"smiles": "N#Cc1cccc(-c2c[nH]c3ncnc(N4CCOCC4)c23)c1", "values": [{"measurement": "% of control", "setting": "[13]", "result": 100, "unit": "%"}, {"measurement": "% of control", "setting": "[14]", "result": 100, "unit": "%"}]}
{"smiles": "O[C@H]1CC[C@H](Nc2ncc3nc(Nc4c(F)cc(F)cc4F)n([C@H]4CCOC4)c3n2)CC1", "values": [{"measurement": "% of control", "setting": "[15]", "result": 29, "unit": "%"}, {"measurement": "% of control", "setting": "[16]", "result": 55, "unit": "%"}]}
{"smiles": "CNC(=O)Nc1ccc(-c2nc(N3CC4CCC(C3)O4)c3cnn(C4CCC5(CC4)OCCO5)c3n2)cc1", "values": [{"measurement": "% of inhibition", "setting": "[17]", "result": 13, "unit": "%"}]}
{"smiles": "C=CC(=O)Nc1ccc(C(=O)Nc2[nH]nc3c2CN(C(=O)N[C@H](CN(C)C)c2ccccc2)C3(C)C)cc1", "values": [{"measurement": "% of engagement", "setting": "[18]", "result": -13.3, "unit": "%"}]}
{"smiles": "CC(C)(O)[C@H](F)CN1Cc2cc(NC(=O)c3cnn4cccnc34)c(N3CCOCC3)cc2C1=O", "values": [{"measurement": "dTM", "setting": "[19]", "result": 0.9, "unit": "K"}]}
